In patent publication US20260174875A1 (Novo Nordisk A/S, priority 2023, published 2026) one finds EC50 data, which are given here for 1 substance.

Like-named read-outs stand apart in the source and are kept apart here. Numbered stars: 1 amine (or outer) side, 2 acyl side, 3 side chain; on linkers, the order of the positions; unused ones are H or OH. Square brackets hold non-standard residues; d marks the D form. Side chains are listed from the residue outwards. * marks the point of attachment. C20 diacid = O=C(O)CCCCCCCCCCCCCCCCCCC(=O)*; γGlu = O=C(O)[C@H](CCC(=O)[*:2])N[*:1]; AEEA = NCCOCCOCC(=O)O; Aib = CC(C)(N)C(=O)O

The target of experiment [1] is T1, human amylin receptor (hAMYR3) (Homo sapiens, UniProt O60896+P30988).
T1 construct: host or cells: BHK cells (Hollex-1 line expressing hCTR(a) and CRE-Luc), further transfected with human RAMP3
T1 sequence (P30988 25-474): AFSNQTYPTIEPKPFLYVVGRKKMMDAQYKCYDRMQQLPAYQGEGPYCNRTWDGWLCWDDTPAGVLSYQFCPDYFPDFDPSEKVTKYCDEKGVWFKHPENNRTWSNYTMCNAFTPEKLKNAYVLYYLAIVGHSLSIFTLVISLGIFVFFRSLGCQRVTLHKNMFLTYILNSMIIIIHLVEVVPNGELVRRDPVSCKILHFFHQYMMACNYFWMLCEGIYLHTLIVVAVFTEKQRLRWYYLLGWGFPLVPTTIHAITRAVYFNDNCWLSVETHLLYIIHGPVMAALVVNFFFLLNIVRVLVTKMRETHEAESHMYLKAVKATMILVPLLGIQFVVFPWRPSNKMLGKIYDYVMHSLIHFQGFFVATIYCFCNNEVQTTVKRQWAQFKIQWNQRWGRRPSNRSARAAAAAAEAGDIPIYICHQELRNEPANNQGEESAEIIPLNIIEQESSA
T1 sequence (O60896 24-148): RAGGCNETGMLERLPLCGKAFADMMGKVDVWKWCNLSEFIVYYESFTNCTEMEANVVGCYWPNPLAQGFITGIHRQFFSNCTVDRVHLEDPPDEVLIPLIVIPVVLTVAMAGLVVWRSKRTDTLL
The experiment in a line: Amylin receptor assay, method B (CRE-luciferase reporter, BHK cells). The format is cell-based. The gist of the method:
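BHK cells with CRE-luciferase, co-expressing hAMYR3 and transfected with human RAMP3, seeded overnight, then exposed 3 h at 37 °C to compound. Buffer: phenol red-free DMEM, 10 mM HEPES, 1% ovalbumin, with 0% or 1% (w/v) HSA. Luminescence read after 30 min with steadylite Plus.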

Experiment [2] has as its target T2, human GLP-1 receptor (hGLP-1R) (Homo sapiens, UniProt P43220).
T2 construct: expressed in transfected cells
The experiment can be described thus: GLP-1 receptor assay, method B (CRE-luciferase reporter, BHK cells, 384-well). The format is cell-based. (In a reporter assay the amount or activity of a reporter protein is the signal.)

T2 sequence (P43220 24-463): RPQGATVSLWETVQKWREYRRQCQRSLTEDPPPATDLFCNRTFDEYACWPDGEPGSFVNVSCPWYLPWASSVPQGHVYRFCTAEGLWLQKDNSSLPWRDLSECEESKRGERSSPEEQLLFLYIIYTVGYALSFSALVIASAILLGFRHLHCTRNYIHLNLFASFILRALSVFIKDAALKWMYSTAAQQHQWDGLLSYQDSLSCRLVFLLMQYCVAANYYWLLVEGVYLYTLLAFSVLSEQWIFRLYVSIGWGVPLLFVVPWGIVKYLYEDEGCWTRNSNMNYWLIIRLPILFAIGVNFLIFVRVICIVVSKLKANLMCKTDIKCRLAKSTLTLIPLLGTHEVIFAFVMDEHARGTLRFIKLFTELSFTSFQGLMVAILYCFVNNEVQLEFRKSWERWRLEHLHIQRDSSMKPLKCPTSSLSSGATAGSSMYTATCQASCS

As for “Y[Aib]EGTFTSDYSILLEEQAAREFIEWLLAGGPSSGAGQAPGQAPGASHLSTAQTQRLSAELHK([AEEA-AEEA-γGlu-C20 diacid])LATLPRTETGSGSP-NH2 [Compound 115]”, the EC50 (as a rule, the concentration at which the effect is half-maximal) in experiment [1] (hAMYR3 Potency, 1% HSA, EC50, methods B, in the presence of 1% HSA) came to 551 pM; in experiment [1] (method B, absence of HSA, read-out: hAMYR3 Potency, no HSA, EC50) it was 7.13 pM; in experiment [2] (hGLP-1R Potency, 1% HSA, EC50, methods B, in the presence of 1% HSA), 92.9 pM; in experiment [2] (method B, absence of HSA, read-out: hGLP-1R Potency, no HSA, EC50), 19.4 pM.
